Results taken from patent US8377918B2 (ACC Therapeutics Inc, priority 2005, dated 2013).

Legend:
A2780/CP70 cells [1] = assay: MTT cell proliferation assay, A2780/CP70 ovarian cancer cells; format: cell-based, human; conditions: A2780/CP70, apigenin alone, 24 h
Description: (§1) FIG. 1. […] (A) A2780/CP70 cells and human fibroblast GM847 cells were seeded in 96-well plate at 4×10^3 cells per well and incubated overnight. […] The cells were incubated for 24 h. Cell proliferation was determined by MTT reduction. […] Cells were trypsinized, harvested, washed once with PBS buffer, and stained using the Annexin-V-Folus Kit as per the manufacture's instructions. […] After incubation, all cells were collected and total DNA was isolated. Eight (8) μg of DNA was resolved on 1.8% agarose gel. […] (D) Treatment of GM847 cells was the same as that of 5D. […] Cleavage of caspase-3 and PARP was detected by western-blot.
FIG. 3. […] A2780/CP70 cells were seeded in 96-well plates and incubated overnight. The old medium was discarded and fresh medium with cisplatin (CDDP) in the presence or absence of apigenin (Api) was added. In 24 h, the cell proliferation was determined by means of MTT reduction method.
FIG. 9. […] A, Cisplatin-resistant ovarian cancer cell line A2780/CP70, and B, prostate cancer cells PC-3 were seeded in 96-well plates at 1×10^4 cells/well and incubated overnight. […] In 24 h, the cell proliferation was assayed by using a MTT assay kit. *indicates significant difference compared to cisplatin alone (p<0.01).

PC-3 cells = assay: MTT cell proliferation assay, PC-3 prostate cancer cells; format: cell-based, human; conditions: 24 h
Description: (§2) FIG. 8. […] Prostate cancer cells PC-3 and DU145 were seeded in 96-well plates at 1×10^4 cells/well. […] The cell proliferation was assayed by culturing the cells for 24 h, then adding 10 μl of MTT reagent with incubation for 2 h. The reaction was stopped by adding 100 μl of solubilization solution. The relative cell proliferation was obtained by the reading at 590 nm which was recorded in a spectrophotometer, and normalized to the value of control.
FIG. 9. […] A, Cisplatin-resistant ovarian cancer cell line A2780/CP70, and B, prostate cancer cells PC-3 were seeded in 96-well plates at 1×10^4 cells/well and incubated overnight.
(§3) FIG. 17. […] A, the prostate cancer cells PC-3 and DU145; B, colon cancer cells Colo-205 and HCT-116; C, lung cancer cells A549 and H460 cells were plated at 1×10^4 cells per well in a 96 well plate in 100 μl of media.
FIG. 18. […] A and B, the prostate cancer cells PC-3 and DU145; C, colon cancer cells Colo-205 and HCT-116; D, lung cancer cells A549 and H460 cells were plated at 1×10^4 cells per well in a 96 well plate in 100 μl of media. […] The cell proliferation was analyzed by MTT assay.
(§4) FIG. 19. […] A, prostate cancer cells PC-3; and B, DU145 cells were plated at 1×10^4 cells per well in a 96 well plate in 100 μl of media. […] Cell proliferation was examined by MTT assay.
(§5) FIG. 23. […] Cell proliferation was examined by MTT assay.

DU145 cells = assay: MTT cell proliferation assay, DU145 prostate cancer cells; format: cell-based, human; conditions: 24 h
Description: as §2, §3, §4
FIG. 21. […] A, the prostate cancer cells PC-3 and DU145; B and C, colon cancer cells Colo-205 and HCT-116 were plated at 1×10^4 cells per well in a 96 well plate in 100 μl of media a day before the treatment.
as §5

A549 cells = assay: MTT cell proliferation assay, A549 lung cancer cells; format: cell-based, human; conditions: A549, apigenin alone, 24 h
Description: as §3

H460 cells = assay: MTT cell proliferation assay, H460 lung cancer cells; format: cell-based, human; conditions: H460, apigenin alone, 24 h
Description: FIG. 17. […] A, the prostate cancer cells PC-3 and DU145; B, colon cancer cells Colo-205 and HCT-116; C, lung cancer cells A549 and H460 cells were plated at 1×10^4 cells per well in a 96 well plate in 100 μl of media. […] FIG. 18. […] A and B, the prostate cancer cells PC-3 and DU145; C, colon cancer cells Colo-205 and HCT-116; D, lung cancer cells A549 and H460 cells were plated at 1×10^4 cells per well in a 96 well plate in 100 μl of media. […] The cell proliferation was analyzed by MTT assay. […] FIG. 22. […] A, colon cancer cells Colo-205 and HCT-116; B, lung cancer cells A549 and H460 cells were plated at 1×10^4 cells per well in a 96 well plate the day before the treatment. […] Cell proliferation was examined by MTT assay. […] FIG. 25.

A2780/CP70 cells [2] = assay: Annexin V apoptosis assay, A2780/CP70; format: cell-based, human; conditions: 24 h
Description: as §1
FIG. 10. […] The cisplatin-resistant ovarian cancer A2780/CP70 cells were seeded in a petri dish. […] After treatment, the cells were collected and the relative cellular apoptosis was analyzed by Annexin V Kit (Roche), and compared to the control.

[3] = test system: tumors induced by A2780/CP70 cells; assay: Tumor weight of A2780/CP70 tumors on CAM; format: in vivo, chicken embryo; conditions: 10 μM apigenin or 2.5 μM CDDP+10 μM apigenin, 10 days
Description: FIG. 4. […] The A2780/CP70 cells were seeded into 100 mm dish and grown to 90-100% confluence. […] In 10 days, the tumors were harvested and weighed. The blood vessel numbers of the tumor were counted under×100. At least five areas were determined. The data are mean±SD from two experiments (n=8). A, representative tumor morphology; B, tumor weight; C, relative numbers of blood vessels.

A2780/CP70 tumors = assay: New blood vessel formation in tumors on CAM; format: in vivo, chicken embryo; conditions: 15 μM apigenin, 100 h
Description: FIG. 7. […] A2780/CP70 ovarian cancer cells were mixed with Matrigel and implanted onto the chorioallantoic membrane (CAM) of a 9-day old embryo. In 100 h, the tumor was cut off and the newly-formed blood vessels on the back of the tumor were determined.

[4] = test system: HIF-1 expression in OVCAR-3 cells; assay: HIF-1 immunoblotting, OVCAR-3; format: cell-based, human
From the text: FIG. 5. […] The cells treated with solvent alone were used as a control. HIF-1α and HIF-1β protein levels were detected by immunoblotting as described in Materials and Methods. GAPDH was used as an internal control to test the loading and transfer efficiency.

endothelial cells = assay: Tube formation in vitro; format: cell-based

For `O=c1cc(-c2ccc(O)cc2)oc2cc(O)cc(O)c12` [apigenin, 4′,5,7,-trihydroxyflavone], the “effect on cell proliferation” value (A2780/CP70 cells [1]) was “inhibited cell proliferation”, the “effect on sensitivity to etoposide treatment” value (PC-3 cells; PC-3, 15 μM apigenin) was “increased the sensitivity” and the “effect on cell proliferation” value (PC-3 cells; PC-3, apigenin alone) was “inhibited”. For the same compound, the “effect on sensitivity to etoposide treatment” value (DU145 cells; DU145, 15 μM apigenin) was “increased the sensitivity”, the “effect on cell proliferation” value (DU145 cells; DU145, apigenin alone) was “inhibited” and the “effect on cell proliferation” value (A549 cells) was “inhibited the proliferation”. For the same compound, the “effect on cell proliferation” value (H460 cells) was “inhibited the proliferation”, the cells undergoing apoptosis (A2780/CP70 cells [2]; A2780/CP70, 10 μM apigenin or 10 μM apigenin plus 10 μM cisplatin) was 12% and the induction of apoptosis (A2780/CP70 cells [2]; A2780/CP70, apigenin alone) was “specifically induced apoptosis”. For the same compound, the “inhibition of tumor growth” value [3] was 40%, the “effect on new blood vessel formation (angiogenesis) in tumors” value (A2780/CP70 tumors) was “inhibited new blood vessel formation” and the “effect on HIF-1 expression” value [4] was “inhibited HIF-1 expression”. The “effect on tube formation” value (endothelial cells) was “inhibited tube formation”.
